Experimental data: paper PMC6337475, “Optimization of Sequence, Display, and Mode of Operation of IgG-Binding Peptide Ligands to Develop Robust, High-Capacity Affinity Adsorbents That Afford High IgG Product Quality” (International Journal of Molecular Sciences, 2019)
Non-standard residues stand in square brackets, D forms with d. No end group written: not given here. Cit = NC(=O)NCCC[C@H](N)C(=O)O

What was measured:
[1] = test system: therapeutic monoclonal IgG1; experiment: Purification of monoclonal IgG1 from CHO cell culture supernatant: yield, loss and purity; details: SDS-PAGE
Experimental: To evaluate the effect of the spacer arm on the purity of the eluted product, the HWRGWV-WB adsorbents constructed with different spacer arms were utilized to purify a monoclonal IgG1 from a CHO cell culture supernatant. […] The collected fractions were analyzed by size exclusion chromatography to measure product yield (Table 2), and by SDS-PAGE to determine the overall product purity by densitometric analysis (Figure 4).
(§1) Further, the chromatographic fractions were analyzed using a HCP ELISA kit and a Quant-IT Picogreen dsDNA assay kit to determine the levels of host cell proteins (HCPs) and DNA, respectively.
(§2) In this work, we have investigated the effect of pH of the elution buffer on the performance of HWRGWV-TREN-WB resin with a therapeutic monoclonal IgG1. Specifically, 0.1 M acetate buffer was used as a milder elution buffer (pH 4–5), while 0.1 M glycine HCl buffer was used for low pH elution (pH 2.5). The performance of the different buffers was evaluated in terms of HCP LRV in the eluted fraction, whose values are reported in Figure 5. The HCP clearance decreases at lower elution pH, which is however needed to ensure sufficient IgG yield. At pH 5, where a HCP LRV of 1.18 is obtained, only 75% of the bound IgG is eluted. […] Therefore, acetate buffer pH 4.5 was selected as elution buffer, as it offers the best combination of yield and purity.

DNA = DNA clearance (Quant-IT PicoGreen) in IgG1 purification from CHO supernatant; set-up: species or system Chinese Hamster Ovary (CHO); details: washing buffer PBS, pH 7.4; elution 0.1 M Na-acetate pH 4.5; TREN-WB adsorbent
Experimental: as §1
The chromatographic fractions were first diafiltered against 10 mM Tris–HCl pH 7.5, using Amicon® centrifugal filters (3000 MWCO Millipore, Bedford, MA, USA). The DNA content in the fractions was determined by pico green assay using Quant-IT Picogreen dsDNA assay kit from Thermo Fisher Scientific (Philadelphia, PA, USA). Quantification was done as per the manufacturer’s protocol.

[2] = test system: CHO host cell proteins (HCPs); experiment: Host cell protein clearance (HCP ELISA) in IgG1 purification from CHO supernatant; set-up: species or system Chinese Hamster Ovary (CHO); details: for HCP LRV: elution 0.1 M Na-acetate pH 4.5, TREN-WB adsorbent
Experimental: as §1, §2
The majority of CHO HCPs are acidic in nature and have an overall negative charge at the physiological conditions (PBS pH 7.4). Their non-specific binding to the positively charged ligand (the net charge of HWRGWV at pH 7 is +1.1) is likely of electrostatic nature. In order to lower the non-specific capture of HCPs, pre-elution wash conditions were optimized by exploring different compositions and pH values of the washing buffer. Specifically, the following conditions were utilized, 0.2 M sodium phosphate pH 6, 0.2 M sodium phosphate pH 7, PBS pH 7.4, 1 M NaCl in PBS at pH 7.4, and 0.1 M Tris HCl pH 9.
The host cell protein contents of the chromatographic fractions were determined using HCP ELISA kits from Cygnus Technologies (Southport, NC, USA). The high sensitivity protocol described by the manufacturer was used in the analysis. Briefly, the anti-CHO-coated microtiter wells were filled with 100 μL of standards and samples, and incubated on a rotator at 200 rpm for 1 h at room temperature. The wells were then washed three times with 300 μL washing buffer, and 100 μL of HRP-labeled anti-CHO antibody was added to each of the wells. After rinsing the wells, 100 μL of 3,3′,5,5′ tetramethyl benzidine (TMB) substrate solution was added to each well for 30 min at room temperature. The reaction was terminated by adding 100 μL of 0.5 M sulphuric acid. The amount of hydrolyzed substrate was measured by μQuant Microplate reader (BioTek Inc., Winooski, VT, USA) at 450 nm. A 4-parameter logistic fit was used to calculate the HCP (ng/mL) content in the chromatographic fractions. The HCP values determined in terms of ng/mL were converted into ng/mg of MAb to account for the dilution of fractions. The log reduction value (LRV) was determined as the log10 of the ratio of HCP in the load to the HCP in the elution fractions.

human polyclonal IgG = experiment: Batch adsorption isotherm (Langmuir fit); format: binding; details: peptide-TREN-WB resin, 0.1-12 mg/mL IgG in PBS pH 7.4, 2 h, room temperature, UV 280 nm
Experimental: The IgG-binding affinity of the ligand variants was initially measured via batch adsorption studies. Briefly, aliquots of peptide-TREN-WB resin were incubated with solutions of IgG in PBS in a range of concentration between 0.1 and 12 mg/mL; as the binding equilibrium was reached, the amount of IgG adsorbed on each resin aliquot was calculated based on the equilibrium concentration of IgG in solution, and the corresponding values were fitted to the Langmuir model: q=QmaxC/KD+C where in KD is the dissociation constant and Qmax the equilibrium binding capacity.
The adsorption of human polyclonal IgG by the HWRGWV-WB resins was measured at room temperature in a set of batch adsorption experiments. The resin was equilibrated with PBS, pH 7.4, and transferred into fritted tubes (50 µL of resin slurry per tube). Lyophilized IgG was dissolved in PBS, pH 7.4, at different concentrations ranging from 0.1 to 12 mg/mL. A volume of 1 mL of IgG solution was incubated with each of the resin aliquots for two hours, at room temperature, and under mild agitation. The supernatants were collected and quantified by UV-absorbance at 280 nm to determine the amount of IgG adsorbed by the resin and the corresponding equilibrium concentration of unbound IgG in solution, and the resulting data were fitted to a Langmuir isotherm.

IgG = details: preliminary studies; cited from earlier work
Text: In this work the peptide and peptide variants have been conjugated to Workbeads base resin at varying ligand densities ...

[3] = test system: polyclonal human IgG (monomer and aggregates); experiment: Aggregate removal from heat-treated polyclonal IgG, SEC; details: 1 mg/mL IgG incubated 60 °C 10 min; PBS wash; elution pH 4.5; SEC (TSKgel G3000SW)
Experimental: The ability of HWRGWVC-TREN-WB to remove aggregates was further tested by using a polyclonal IgG solution. The formation of aggregates was induced by incubating a 1 mg/mL IgG solution at 60 °C for 10 min. The IgG solution containing aggregates was loaded onto the HWRGWVC-TREN-WB resin, followed by washing with PBS and elution at pH 4.5.
Further, a feed sample containing monomeric and aggregated polyclonal IgG was produced by incubating a 1 mg/mL solution of human IgG at 60 °C for 10 min. The solution was loaded onto the HWRGWVC-TREN-WB resin, followed by washing with PBS and elution at pH 4.5. The collected fractions were analyzed by size exclusion chromatography (SEC) using a TSKgel G3000SW column to determine the ratio of monomeric vs. aggregated IgG in both flow-through and elution fractions.

Fc region of IgG = details: cited from earlier work
Text: Several chromatographic and non-chromatographic techniques have been proposed for the purification of Mabs, fc fusion proteins and bispecifics including efforts towards identifying alternatives to Protein A-based chromatography. While being regarded as the standard for antibody purification owing to their high affinity and selectivity, these ligands present limitations, including high cost and the potential release of immunogenic fragments. An additional issue with Protein A concerns the presence of antibody aggregates in eluted fraction and their poor selectivity ...

Row | Substance | loss of IgG in washing buffer ([1]; wash 0.1 M Tris HCl, pH 9) | loss of IgG in washing buffer ([1]; wash 1 M NaCl in PBS pH 7.4) | DNA LRV (DNA) | HCP LRV ([2]; washing buffer PBS, pH 7.4) | Qmax (equilibrium binding capacity) (human polyclonal IgG) [mg·IgG/mL Adsorbent] | IgG binding capacity on agarose WorkBeads ACT (IgG) | HCP LRV ([2]; washing buffer 0.1 M Tris HCl, pH 9) | HCP removal during washing ([2]; washing buffer 0.2 M sodium phosphate at either pH 6 or 7) | HCP LRV ([2]; washing buffer 1 M NaCl in PBS, pH 7.4) | selective capture of monomeric IgG vs aggregates [3] | binding region on IgG (Fc region of IgG)
1 | HWRGWVC [peptide HWRGWV with C-terminal cysteine, conjugated through its thiol group to iodoacetyl-WB resin] | not observed | minor loss of IgG in the washing buffer |  |  |  |  |  |  |  |  | 
2 | Ac-HWRGWV [N-terminally acetylated variant of HWRGWV, tested as TREN-WB resin] |  |  | ~4 | 1.38 | 72 |  |  |  |  |  | 
3 | HW[Cit]GWV |  |  | ~4 | 1.58 | 49 |  |  |  |  |  | 
4 | HWRGWV [tested as TREN-WB resin, coupled as HWRGWVC] |  |  | ~4 | 1.04 | 85 | higher IgG binding capacity as compared to polymethcarylate base resin | 1.39 | did not afford any HCP removal during washing | 1.22 | bind only monomeric IgG | binds the Fc region of IgG
